Reference: PubChem BioAssay (NCI)
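The compound was tested at five concentrations on cells cultured in 96-well plates, with a 48-hour exposure period. GI50 is the concentration that inhibits growth by half. TGI denotes the concentration required for complete inhibition of growth.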

Tests used:
Test in all cases: NCI-60 cell line screen, 48 h
SNB-19 CNS = test system: SNB-19 CNS
SW-620 colon = test system: SW-620 colon
SK-OV-3 ovarian = test system: SK-OV-3 ovarian
HOP-62 NSCLC = test system: HOP-62 NSCLC
RXF 393 renal = test system: RXF 393 renal
SNB-75 CNS = test system: SNB-75 CNS
OVCAR-8 ovarian = test system: OVCAR-8 ovarian
PC-3 prostate = test system: PC-3 prostate
K-562 leukemia = test system: K-562 leukemia
HCT-15 colon = test system: HCT-15 colon

Row | Compound | TGI (SNB-19 CNS) [µM] | TGI (SW-620 colon) [µM] | TGI (SK-OV-3 ovarian) [µM] | TGI (HOP-62 NSCLC) [µM] | TGI (RXF 393 renal) [µM] | TGI (SNB-75 CNS) [µM] | TGI (OVCAR-8 ovarian) [µM] | TGI (PC-3 prostate) [µM] | TGI (K-562 leukemia) [µM] | TGI (HCT-15 colon) [µM] | GI50 (RXF 393 renal) [µM] | GI50 (SK-OV-3 ovarian) [µM] | GI50 (K-562 leukemia) [µM]
1 | O=C(O)C1C2c3ccccc3C(c3ccccc32)C1C(=O)NCC1CC1 (centres undefined) | > 100 | > 100 | > 100 | > 100 | > 100 | > 100 | > 100 | > 100 | > 100 | > 100 | – | – | –
2 | CON(C)C(=O)C(C)N(Cc1ccccc1)Cc1ccccc1 (centres undefined) | > 100 | > 100 | > 100 | > 100 | > 100 | > 100 | > 100 | > 100 | > 100 | > 100 | – | – | –
3 | COc1cc2c(/C=C3/C(=O)Nc4cccc(Cl)c43)c(Cl)[nH]c2cc1C | 7.13 | 5.25 | 5.67 | 10.2 | 7.41 | 4.03 | 11.8 | 11.8 | 3.64 | 4.29 | – | – | –
4 | O=C(O)Cc1ccc([N+](=O)[O-])cc1[N+](=O)[O-] | > 100 | > 100 | > 100 | > 100 | > 100 | > 100 | > 100 | > 100 | > 100 | > 100 | – | – | –
5 | CC(=O)CC1CCC(=O)/C=C/C(=O)OC(CC(C)=O)CCC(=O)/C=C/C(=O)O1 (centres undefined) | 43.4 | 3.65 | 36.1 | 42.8 | 8.55 | 28.8 | 53.5 | 28.6 | > 20.9 | 4.16 | – | – | –
6 | CCOC(=O)CCC(NC(=O)C(N)Cc1ccc(N(CCCl)CCCl)cc1)C(=O)OCC (centres undefined) | 15.5 | 5.3 | 5.3 | 7.9 | 0.739 | 2.79 | 2.4 | 7.9 | 12.7 | 1.93 | 0.17 | – | –
7 | CCOC(=O)C(=[N+]=[N-])C(=O)CN1C(=O)c2ccccc2C1=O | > 100 | > 100 | > 100 | > 100 | > 100 | > 100 | > 100 | > 100 | > 100 | > 100 | – | – | –
8 | CSC(=O)c1sc(SC)[n+](-c2ccccc2)c1O | 35.7 | 42.5 | > 100 | 32.1 | 28 | 27.2 | 59.7 | 29.8 | > 100 | 54.3 | – | – | –
9 | Cc1ccc(S(=O)(=O)N2C3C=CC(C3)[C@@H]2C(Cl)(Cl)Cl)cc1 (some centres undefined) | > 87.6 | 44.9 | > 100 | 41.5 | 41.4 | 51.2 | > 63.3 | > 70.3 | > 100 | 62.6 | 19.2 | 39.2 | 28.5
10 | COC(=O)[C@]1(C)CCC[C@@]2(C)C1CC[C@@]13C=C(C(C)C)[C@@H](CC1=O)CC23 (some centres undefined) | 73.4 | 83.6 | > 100 | 83.9 | 41.2 | > 100 | > 100 | > 100 | 30.2 | 45.4 | – | – | –
11 | Cc1ccc2nc(-c3ccccc3)cc(=O)n2c1 | > 100 | > 100 | > 100 | > 100 | > 100 | > 100 | > 100 | > 100 | > 100 | > 100 | – | – | –
12 | C[C@]12[C@@H]3CC[C@H]1[C@@H](O)C(=O)N2CC3 | > 100 | > 100 | > 100 | > 100 | > 100 | > 100 | > 100 | > 100 | > 100 | > 100 | – | – | –
13 | COc1ccccc1CC(=O)C(O)(C(F)(F)F)C(F)(F)F | > 100 | > 100 | > 100 | > 100 | > 100 | > 100 | > 100 | > 100 | > 100 | > 100 | – | – | –
14 | O=C1OC(c2ccccc2)=N/C1=C\c1ccc([N+](=O)[O-])cc1 | > 100 | > 100 | > 100 | > 100 | > 100 | > 100 | > 100 | > 100 | > 100 | > 100 | – | – | –
15 | C[N+]12C=CC=C1C(N1CCCC1)c1scc(-c3ccc(Br)cc3)c12 (centres undefined) | 39.2 | > 100 | > 100 | 98.2 | 43.5 | > 22.3 | > 100 | 99.2 | > 89.9 | > 100 | – | – | –
16 | N=c1oc2ccccc2cc1C(=O)NC12CC3CC(CC(C3)C1)C2 | 80.5 | > 100 | 53.5 | > 83.7 | 24.2 | 71.3 | > 100 | > 68.9 | 72.1 | 67.5 | – | – | –
17 | O=C1NC2(CCN(CCc3ccccc3)CC2)Oc2ccccc21 | > 100 | > 100 | > 100 | > 100 | > 100 | > 100 | > 100 | > 100 | > 100 | > 100 | – | – | –
18 | COc1ccc(C2c3cc4c(cc3OC3(OC)COC(=O)C23)OCO4)c(OC)c1 (centres undefined) | > 100 | > 100 | > 86 | > 100 | 35.4 | 45.5 | > 100 | > 100 | 34.4 | > 100 | – | – | –

Row | Compound | TGI (SNB-19 CNS) [µM] | TGI (SW-620 colon) [µM] | TGI (SK-OV-3 ovarian) [µM] | TGI (HOP-62 NSCLC) [µM] | TGI (RXF 393 renal) [µM] | TGI (SNB-75 CNS) [µM] | TGI (OVCAR-8 ovarian) [µM] | TGI (PC-3 prostate) [µM] | TGI (K-562 leukemia) [µM] | TGI (HCT-15 colon) [µM] | GI50 (RXF 393 renal) [µM] | GI50 (SK-OV-3 ovarian) [µM] | GI50 (K-562 leukemia) [µM]
19 | COc1cc(S(=O)(=O)Nc2ccc(-c3csc(N4C(=O)CSC4c4cccc(Oc5ccccc5)c4)n3)cc2)ccc1Cl (centres undefined) | > 100 | > 100 | > 100 | > 100 | 52.8 | > 100 | > 100 | > 100 | > 100 | > 100 | – | – | –
20 | O=C1c2ccccc2-n2nnnc2C2CSCN12 (centres undefined) | > 100 | > 100 | > 100 | > 100 | > 100 | > 100 | > 100 | > 100 | > 100 | > 100 | – | – | –
21 | Cc1ccc(S(=O)(=O)N2CC2CCCCC=O)cc1 (centres undefined) | > 100 | > 100 | > 100 | > 100 | > 100 | > 100 | > 100 | > 100 | > 100 | > 100 | – | – | –
22 | C=C1C(=O)O[C@@H]2/C=C(C)/C=C\[C@@H]3O[C@@]3(C)C[C@@H](O)C12 (some centres undefined) | 42.5 | 17.2 | > 100 | > 100 | 76.4 | > 100 | 55.1 | 73.2 | 20.6 | 27.6 | – | – | –
23 | CC1=C/C(=N\NC(N)=S)C(C(O)(C(F)(F)F)C(F)(F)F)C(C)(C)C1 (centres undefined) | > 10 | > 10 | > 10 | > 10 | > 10 | > 10 | > 10 | > 10 | > 10 | > 10 | – | – | –
24 | COCOC1/C=C/CCCCC(=O)C(C)C#CC1 (centres undefined) | 32.6 | 3.56 | 32.3 | 33.9 | 9.19 | 26.1 | 17.7 | 24 | 7.66 | 7.11 | – | – | –
25 | O=C1C(Br)=C(Br)C(=O)c2ccc(=O)ccc21 | > 100 | 42.7 | > 100 | > 79.2 | 36.3 | > 100 | 50.8 | > 100 | > 61.9 | 38.7 | – | – | –
26 | C(=C/CCCN1O[C@@H](CCCCCCCCc2cccnc2)[C@H]2CCC[C@H]21)/CCCCCCCCCc1cccnc1 | 85 | 91.8 | 47.2 | 49.3 | 32.9 | 51.4 | 88.3 | 46.1 | 29 | 58.9 | – | – | –
27 | O=C1c2cccc3cc([N+](=O)[O-])cc(c23)C(=O)N1Nc1ccc([N+](=O)[O-])cc1[N+](=O)[O-] | 38.9 | 25.3 | > 31.6 | 50.5 | > 31.6 | > 31.6 | 21 | 72.7 | > 31.6 | 27.4 | – | – | –
28 | O=C1SC(SCc2ccccc2)=NC12CC2c1ccccc1 (centres undefined) | 71.1 | 53.3 | > 100 | > 82.8 | 37.2 | 71.6 | 41.8 | > 66.8 | 55.3 | 51.4 | – | – | –
29 | CC1=NN(c2nc(N)nc(COc3ccc(N)cc3)n2)C(C)(C)C1 | > 100 | > 100 | > 100 | > 100 | > 100 | > 100 | > 100 | > 100 | > 100 | > 100 | – | – | –
30 | COc1ccc(S(=O)(=O)n2c3c(c4ccccc42)[C@@H]2[C@@H](CCCN2C(=O)CS(=O)c2ccc(C)cc2)[C@H](Cl)C3)cc1 (some centres undefined) | > 100 | > 100 | > 100 | > 100 | > 100 | > 100 | > 100 | > 100 | > 100 | > 100 | – | – | –
31 | CC(C)(CN1CCCCC1)C(/C=C/c1ccc(Cl)cc1)=N\NC(=O)N/N=C(/C=C/c1ccc(Cl)cc1)C(C)(C)CN1CCCCC1 | 16.3 | 7.67 | 25.4 | 14.2 | 8.24 | 12.7 | 23.1 | 19.7 | > 100 | 7.99 | – | – | –
32 | COc1ccc(C(C)NNC(=O)c2ccncc2)cc1OC (centres undefined) | > 100 | > 100 | > 100 | > 100 | > 100 | > 100 | > 100 | > 100 | > 100 | > 100 | – | – | –
33 | COc1ccc(C(SCCO)(c2ccccc2)c2ccc(OC)cc2)cc1 | 22.8 | 35.6 | 35.4 | 42 | 17.7 | 16.8 | 43 | 28.9 | > 72.9 | 30.3 | – | – | –
34 | O=C(C(=O)n1ccc2ccccc21)n1ccc2ccccc21 | > 100 | > 100 | > 100 | > 100 | > 100 | 56 | > 100 | > 100 | > 100 | > 100 | – | – | –
35 | O=S(=O)(O)c1cc(N=Nc2c(O)ccc3ccccc23)cc2c(S(=O)(=O)O)cccc12 | > 100 | > 100 | > 100 | > 100 | > 100 | > 100 | > 100 | > 100 | > 100 | > 100 | – | – | –
